Data as given in publication PMC8213057, “Targeting ALK2: An Open Science Approach to Developing Therapeutics for the Treatment of Diffuse Intrinsic Pontine Glioma” (Journal of Medicinal Chemistry, 2020).

Columns and labels:
CDK2/cyclin E = CDK2/cyclin E (Homo sapiens, UniProt P24941); assay: biochemical; conditions: read-out: % enzyme activity, 1 μM; Run 1, Run 2
EPHA3 = target: T1, EPHA3 (Homo sapiens, UniProt P29320); conditions: 1 μM; Run 1, Run 2
T1 sequence (P29320 21-983): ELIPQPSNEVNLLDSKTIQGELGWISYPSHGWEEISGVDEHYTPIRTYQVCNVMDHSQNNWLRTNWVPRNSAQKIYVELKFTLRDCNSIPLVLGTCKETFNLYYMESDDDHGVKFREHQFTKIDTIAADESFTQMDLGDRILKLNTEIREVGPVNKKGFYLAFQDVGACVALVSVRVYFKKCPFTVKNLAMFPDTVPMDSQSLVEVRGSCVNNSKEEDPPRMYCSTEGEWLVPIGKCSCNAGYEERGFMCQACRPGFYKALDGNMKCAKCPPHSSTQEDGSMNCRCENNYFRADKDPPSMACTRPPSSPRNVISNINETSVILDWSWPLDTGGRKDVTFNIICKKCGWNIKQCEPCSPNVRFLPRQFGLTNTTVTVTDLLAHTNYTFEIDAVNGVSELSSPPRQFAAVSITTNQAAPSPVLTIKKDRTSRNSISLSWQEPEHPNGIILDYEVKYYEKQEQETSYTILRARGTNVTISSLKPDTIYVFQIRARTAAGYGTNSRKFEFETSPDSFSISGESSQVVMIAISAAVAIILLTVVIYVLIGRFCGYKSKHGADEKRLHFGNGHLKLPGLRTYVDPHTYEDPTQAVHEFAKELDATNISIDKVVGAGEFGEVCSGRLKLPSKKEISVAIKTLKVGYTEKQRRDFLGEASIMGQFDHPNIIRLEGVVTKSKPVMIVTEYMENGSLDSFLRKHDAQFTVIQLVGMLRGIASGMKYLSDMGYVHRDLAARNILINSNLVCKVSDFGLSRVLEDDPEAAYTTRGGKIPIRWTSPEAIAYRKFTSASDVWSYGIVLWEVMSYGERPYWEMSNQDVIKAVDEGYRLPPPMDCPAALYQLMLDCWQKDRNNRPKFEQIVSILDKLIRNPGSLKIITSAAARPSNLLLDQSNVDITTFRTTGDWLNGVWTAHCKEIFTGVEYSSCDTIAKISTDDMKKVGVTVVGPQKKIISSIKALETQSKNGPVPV

DRAK1/STK17A = target: T2, DRAK1/STK17A (Homo sapiens, UniProt Q9UEE5); conditions: 1 μM; Run 1, Run 2
T2 sequence (Q9UEE5 1-414): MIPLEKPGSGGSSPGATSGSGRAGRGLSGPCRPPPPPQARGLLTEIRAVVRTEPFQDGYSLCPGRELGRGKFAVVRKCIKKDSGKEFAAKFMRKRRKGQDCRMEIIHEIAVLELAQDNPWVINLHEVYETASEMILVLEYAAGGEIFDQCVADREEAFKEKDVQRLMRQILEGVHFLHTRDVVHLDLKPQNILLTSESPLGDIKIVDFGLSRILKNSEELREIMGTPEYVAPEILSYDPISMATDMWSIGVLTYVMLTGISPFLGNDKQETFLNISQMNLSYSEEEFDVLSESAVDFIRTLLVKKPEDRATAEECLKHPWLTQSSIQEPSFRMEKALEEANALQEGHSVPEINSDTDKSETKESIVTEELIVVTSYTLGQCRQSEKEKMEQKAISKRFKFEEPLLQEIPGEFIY

ARAF = target: T3, ARAF (Homo sapiens, UniProt P10398); assay: biochemical; conditions: read-out: % enzyme activity, 1 μM; Run 1, Run 2
T3 sequence (P10398 1-606): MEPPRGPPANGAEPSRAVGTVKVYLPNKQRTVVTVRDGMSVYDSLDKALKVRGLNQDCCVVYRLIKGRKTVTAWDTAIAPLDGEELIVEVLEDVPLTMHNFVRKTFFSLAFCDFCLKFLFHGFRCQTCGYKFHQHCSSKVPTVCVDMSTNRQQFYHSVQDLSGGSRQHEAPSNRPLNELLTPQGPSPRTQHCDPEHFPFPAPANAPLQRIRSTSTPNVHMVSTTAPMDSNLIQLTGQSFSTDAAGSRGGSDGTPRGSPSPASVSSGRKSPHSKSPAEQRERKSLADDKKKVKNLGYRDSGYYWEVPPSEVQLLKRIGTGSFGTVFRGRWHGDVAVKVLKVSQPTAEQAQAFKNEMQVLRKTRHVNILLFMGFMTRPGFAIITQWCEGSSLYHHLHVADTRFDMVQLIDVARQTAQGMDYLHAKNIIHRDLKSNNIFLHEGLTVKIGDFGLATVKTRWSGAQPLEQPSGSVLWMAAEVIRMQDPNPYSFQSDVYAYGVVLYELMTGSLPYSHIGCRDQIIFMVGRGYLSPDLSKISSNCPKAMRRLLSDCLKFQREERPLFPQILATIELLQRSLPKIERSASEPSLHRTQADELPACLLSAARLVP

PKMYT1 = target: T4, PKMYT1 (Homo sapiens, UniProt Q99640); assay: biochemical; conditions: read-out: % enzyme activity, 1 μM; Run 1, Run 2
T4 sequence (Q99640 1-499): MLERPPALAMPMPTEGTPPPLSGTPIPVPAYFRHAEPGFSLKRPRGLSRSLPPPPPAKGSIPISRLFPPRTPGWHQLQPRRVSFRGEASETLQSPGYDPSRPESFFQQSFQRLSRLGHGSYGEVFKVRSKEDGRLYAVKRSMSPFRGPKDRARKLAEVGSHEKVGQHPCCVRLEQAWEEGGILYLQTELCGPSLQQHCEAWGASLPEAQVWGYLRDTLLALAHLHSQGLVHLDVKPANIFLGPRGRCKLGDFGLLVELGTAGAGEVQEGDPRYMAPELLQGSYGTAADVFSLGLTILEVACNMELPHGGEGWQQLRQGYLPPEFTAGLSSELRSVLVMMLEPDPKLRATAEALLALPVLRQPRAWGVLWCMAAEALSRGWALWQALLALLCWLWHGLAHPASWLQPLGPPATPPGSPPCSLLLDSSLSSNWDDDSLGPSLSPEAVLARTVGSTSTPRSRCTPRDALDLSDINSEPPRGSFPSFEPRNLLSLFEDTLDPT

VRK2 = VRK2 (Homo sapiens, UniProt Q86Y07); assay: biochemical; conditions: read-out: % enzyme activity, 1 μM; Run 1, Run 2
PAK5 = PAK5 (Homo sapiens, UniProt Q9P286); conditions: 1 μM; Run 1, Run 2
RIPK3 = RIPK3 (Homo sapiens, UniProt Q9Y572); conditions: 1 μM; Run 1, Run 2
Sequence of RIPK3 (Q9Y572 whole entry): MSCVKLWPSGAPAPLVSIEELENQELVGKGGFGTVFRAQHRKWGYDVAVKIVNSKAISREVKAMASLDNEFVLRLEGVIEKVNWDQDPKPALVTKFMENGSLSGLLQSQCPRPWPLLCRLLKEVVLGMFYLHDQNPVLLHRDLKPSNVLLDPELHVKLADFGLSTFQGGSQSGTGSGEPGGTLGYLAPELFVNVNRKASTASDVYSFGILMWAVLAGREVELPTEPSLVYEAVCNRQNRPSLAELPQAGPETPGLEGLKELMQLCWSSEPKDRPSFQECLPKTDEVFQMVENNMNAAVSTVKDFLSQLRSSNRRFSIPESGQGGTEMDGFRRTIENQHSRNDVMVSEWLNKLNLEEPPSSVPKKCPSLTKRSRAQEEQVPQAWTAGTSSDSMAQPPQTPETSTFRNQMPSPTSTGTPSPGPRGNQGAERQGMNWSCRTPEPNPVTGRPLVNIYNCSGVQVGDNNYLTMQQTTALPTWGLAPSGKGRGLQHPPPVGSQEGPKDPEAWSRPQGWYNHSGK

Sequence of VRK2 (Q86Y07 whole entry, species assumed): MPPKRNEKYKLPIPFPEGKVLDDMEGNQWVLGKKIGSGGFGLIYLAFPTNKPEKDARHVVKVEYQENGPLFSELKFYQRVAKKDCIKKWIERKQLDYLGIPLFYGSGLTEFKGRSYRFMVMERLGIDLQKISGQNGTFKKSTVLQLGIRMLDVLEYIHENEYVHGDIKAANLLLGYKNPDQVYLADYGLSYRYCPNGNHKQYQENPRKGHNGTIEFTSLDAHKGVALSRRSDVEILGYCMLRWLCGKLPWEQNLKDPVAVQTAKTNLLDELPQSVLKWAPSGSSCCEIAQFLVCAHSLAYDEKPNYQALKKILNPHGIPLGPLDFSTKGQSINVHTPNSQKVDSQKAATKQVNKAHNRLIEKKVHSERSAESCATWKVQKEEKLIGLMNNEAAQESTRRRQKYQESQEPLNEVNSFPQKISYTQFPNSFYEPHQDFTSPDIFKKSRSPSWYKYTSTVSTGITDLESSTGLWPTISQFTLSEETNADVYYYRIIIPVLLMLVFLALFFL
Sequence of PAK5 (Q9P286 whole entry): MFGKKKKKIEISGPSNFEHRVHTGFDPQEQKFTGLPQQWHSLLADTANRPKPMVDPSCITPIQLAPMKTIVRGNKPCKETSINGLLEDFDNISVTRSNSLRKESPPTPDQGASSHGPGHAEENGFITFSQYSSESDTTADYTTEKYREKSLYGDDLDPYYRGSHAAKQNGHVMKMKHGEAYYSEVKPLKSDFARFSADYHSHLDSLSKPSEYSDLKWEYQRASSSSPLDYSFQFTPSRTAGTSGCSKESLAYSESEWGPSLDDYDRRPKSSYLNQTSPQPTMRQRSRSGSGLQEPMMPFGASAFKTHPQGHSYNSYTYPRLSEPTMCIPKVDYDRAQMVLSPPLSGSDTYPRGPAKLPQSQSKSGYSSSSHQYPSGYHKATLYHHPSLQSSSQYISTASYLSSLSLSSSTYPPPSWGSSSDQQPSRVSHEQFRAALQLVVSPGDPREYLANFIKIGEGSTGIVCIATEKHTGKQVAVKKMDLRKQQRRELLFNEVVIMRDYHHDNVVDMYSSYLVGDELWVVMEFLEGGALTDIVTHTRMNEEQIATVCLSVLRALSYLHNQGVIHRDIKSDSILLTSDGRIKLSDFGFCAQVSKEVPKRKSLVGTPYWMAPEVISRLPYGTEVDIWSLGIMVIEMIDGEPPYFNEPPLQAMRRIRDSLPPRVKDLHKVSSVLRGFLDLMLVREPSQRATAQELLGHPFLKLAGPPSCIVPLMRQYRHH

| SMILES | remaining activity at 1 µM (CDK2/cyclin E) [%] | % enzyme activity (EPHA3) [%] | % enzyme activity (DRAK1/STK17A) [%] | remaining activity at 1 µM (ARAF) [%] | remaining activity at 1 µM (PKMYT1) [%] | remaining activity at 1 µM (VRK2) [%] | % enzyme activity (PAK5) [%] | % enzyme activity (RIPK3) [%] |
| --- | --- | --- | --- | --- | --- | --- | --- | --- |
| COc1cc(-c2cncc(-c3ccc(N4CCN(C)CC4)cc3)c2C)cc(F)c1C(N)=O [Compound 26a, 2-Fluoro-6-methoxy-4-(4-methyl-5-(4-(4-methylpiperazin-1-yl)phenyl)pyridin-3-yl)benzamide] | 105 | 94.70 | 95.60 | 29.3 | 101 | 89.1 | 92.74 | 101.40 |
| COc1cc(-c2cncc(-c3ccc(N4C[C@@H](C)N(C)[C@@H](C)C4)cc3)c2C)cc(F)c1C(N)=O [Compound 26c, 2-Fluoro-6-methoxy-4-(4-methyl-5-(4-((3R,5S)-3,4,5-trimethylpiperazin-1-yl)phenyl)pyridin-3-yl)benzamide] | 102 | 98.11 | 95.69 | 48.1 | 94.5 | 92.5 | 94.99 | 102.83 |
